Measurements from ChEMBL document CHEMBL4152336, “Optimization of the first small-molecule relaxin/insulin-like family peptide receptor (RXFP1) agonists: Activation results in an antifibrotic gene expression profile” (Eur J Med Chem, 2018).
≈ marks a conversion by molar mass, not a printed value. Calls of active or inactive are those of the source. The calls are words filed in the database; no cut-off is given here.

Legend:
Relaxin receptor 1 = target: T1, Relaxin receptor 1 (Homo sapiens, UniProt Q9HBX9); format: functional, cell-based, HEK293
T1 sequence (Q9HBX9 whole entry): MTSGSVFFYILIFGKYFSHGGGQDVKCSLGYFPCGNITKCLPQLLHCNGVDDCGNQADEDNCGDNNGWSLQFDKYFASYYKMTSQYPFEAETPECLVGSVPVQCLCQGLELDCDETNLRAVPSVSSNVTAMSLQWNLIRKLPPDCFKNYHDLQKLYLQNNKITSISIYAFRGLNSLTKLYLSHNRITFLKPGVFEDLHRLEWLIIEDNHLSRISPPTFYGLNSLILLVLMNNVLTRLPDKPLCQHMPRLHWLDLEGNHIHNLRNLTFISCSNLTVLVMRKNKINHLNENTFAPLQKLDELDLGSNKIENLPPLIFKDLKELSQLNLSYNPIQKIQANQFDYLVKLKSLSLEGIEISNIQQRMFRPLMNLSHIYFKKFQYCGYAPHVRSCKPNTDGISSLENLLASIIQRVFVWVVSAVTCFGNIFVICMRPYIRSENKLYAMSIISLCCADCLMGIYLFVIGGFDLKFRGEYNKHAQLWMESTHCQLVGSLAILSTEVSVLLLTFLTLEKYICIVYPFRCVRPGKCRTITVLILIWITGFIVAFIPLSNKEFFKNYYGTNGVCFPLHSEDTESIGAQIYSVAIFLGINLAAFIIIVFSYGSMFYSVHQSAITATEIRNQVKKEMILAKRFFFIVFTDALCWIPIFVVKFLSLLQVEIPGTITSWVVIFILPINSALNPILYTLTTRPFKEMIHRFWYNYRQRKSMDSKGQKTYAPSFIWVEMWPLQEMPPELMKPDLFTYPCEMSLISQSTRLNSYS

[1] = target: T2, Relaxin receptor 1 (Homo sapiens) (UniProt Q9HBX9); format: functional, cell-based; conditions: HEK293
T2 sequence (whole entry): T1 sequence (Q9HBX9 whole entry)

[2] = Aqueous kinetic solubility of the compound in PBS by shake-flask method; format: physicochemical; conditions: for solubility kinetic: PBS, read-out: Kinetic_solubility
[3] = rat, microsomes
Description: Half life in rat liver microsomes

[4] = Metabolic stability in mouse liver microsomes assessed as parent compound remaining after 60 mins; format: ADME, microsome; conditions: read-out: Stability
HEK293 = assay: Cytotoxicity against HEK293 cells assessed as reduction in cell viability by measuring ATP level by ATPlite assay; format: cell-based; conditions: Homo sapiens

Row | Compound | Efficacy [1] | EC50 (Relaxin receptor 1; read-out: EC50) [µM] | other results
1 | O=C(Nc1cccc(-c2ccccc2)c1)c1ccccc1NC(=O)C1CCCCC1 | inactive |  | EC50 (Relaxin receptor 1; hek293): Not Active
2 | CCOc1ccccc1C(=O)Nc1ccccc1C(=O)Nc1cccc(C(F)(F)F)c1 | 94% | 0.265 | 
3 | O=C(Nc1cccc(C(F)(F)F)c1)c1ccccc1NC(=O)C1CCC1 | 75% | 2.97 | 
4 | O=C(Nc1ccccc1)c1ccccc1NC(=O)C1CCCCC1 | 57% | 94 | 
5 | CCOc1ccccc1C(=O)Nc1cccnc1C(=O)Nc1cccc(S(=O)(=O)C(F)(F)F)c1 | 73% | 4.71 | solubility kinetic [2]: < 1000 µM; t1/2 [3]: > 30 min
6 | CCOc1ccccc1C(=O)Nc1ccncc1C(=O)Nc1cccc(S(=O)(=O)C(F)(F)F)c1 | 97% | 0.747 | t1/2 [3]: > 30 min
7 | O=C(Nc1cccc(S(=O)(=O)C(F)(F)F)c1)c1ccccc1NC(=O)C1CCCCC1 | 87% | 1.06 | 
8 | CCOc1ccccc1C(=O)Nc1sccc1C(=O)Nc1cccc(S(=O)(=O)C(F)(F)F)c1 | 95% | 2.36 | 
9 | O=C(Nc1cccc(C(F)(F)F)c1)c1ccccc1NC(=O)C1CCCCC1 | 92% | 1.88 | remaining at 1 h [4]: 70%
10 | O=C(NCc1cccc(C(F)(F)F)c1)c1ccccc1NC(=O)C1CCCCC1 | inactive |  | EC50 (Relaxin receptor 1; hek293): Not Active
11 | CCOc1ccccc1C(=O)Nc1ncccc1C(=O)Nc1cccc(S(=O)(=O)C(F)(F)F)c1 | 98% | 1.67 | solubility kinetic [2]: < 1000 µM; t1/2 [3]: 19.85 min
12 | O=C(Nc1ccccc1C(=O)Nc1cccc(C(F)(F)F)c1)c1ccccc1 | 64% | 1.32 | 
13 | O=C(Nc1cccc(C(F)(F)F)c1)c1ccccc1NC(=O)C1CCCCCC1 | 75% | 2.11 | 
14 | COc1ccccc1C(=O)Nc1cccc(C(=O)Nc2cccc(C(F)(F)F)c2)c1 | inactive |  | EC50 (Relaxin receptor 1; hek293): Not Active
15 | COc1ccccc1C(=O)Nc1ccccc1C(=O)N(C)c1cccc(C(F)(F)F)c1 | 77% | 29.7 | 
16 | O=C(NCc1ccco1)c1ccccc1NC(=O)c1ccccc1NC(=O)C1CCCCC1 | 45% | 9.4 | 
17 | CN(C)CCOc1ccccc1C(=O)Nc1ccccc1C(=O)Nc1cccc(C(F)(F)F)c1 | 92% | 3.74 | 
18 | COCCNc1ccccc1C(=O)Nc1cccc(C(F)(F)F)c1 | 63% | 59.3 | 
19 | COc1cccc(OC)c1C(=O)Nc1ccccc1C(=O)Nc1cccc(C(F)(F)F)c1 | 42% | 7.47 | 
20 | O=C(Nc1ccccc1C(=O)Nc1cccc(C(F)(F)F)c1)c1ccccc1Cl | 92% | 3.74 | 
21 | CCC(CC)C(=O)Nc1ccccc1C(=O)Nc1cccc(C(F)(F)F)c1 | 59% | 5.29 | 
22 | O=C(Nc1cccc(-c2ccccc2C(F)(F)F)c1)c1ccccc1NC(=O)C1CCCCC1 | 74% | 2.65 | 
23 | O=C(Nc1cccc(C(F)(F)F)c1)c1ccccc1NC(=O)c1ccccc1OC(F)(F)F | 96% | 1.18 | 
24 | O=C(Nc1cccc(S(=O)(=O)C(F)(F)F)c1)c1ccccc1NC(=O)c1ccccc1OCC(F)(F)F | 97% | 0.067 | t1/2 [3]: > 30 min
25 | COc1ccccc1C(=O)Nc1ccccc1C(=O)Nc1cccc(C(F)(F)F)c1 | 99% | 0.334 | 
26 | CCOc1ccccc1S(=O)(=O)Nc1ccccc1C(=O)Nc1cccc(S(=O)(=O)C(F)(F)F)c1 | inactive |  | EC50 (Relaxin receptor 1; hek293): Not Active
27 | CCCCC(=O)Nc1ccccc1C(=O)Nc1cccc(C(F)(F)F)c1 | 94% | 5.29 | 
28 | O=C(Nc1cccc([N+](=O)[O-])c1)c1ccccc1NC(=O)C1CCCCC1 | 93% | 5.93 | 

Row | Compound | Efficacy [1] | EC50 (Relaxin receptor 1; read-out: EC50) [µM] | other results
29 | O=C(Cc1ccccc1)Nc1ccccc1C(=O)Nc1cccc(C(F)(F)F)c1 | 86% | 8.38 | 
30 | CCCOc1ccccc1C(=O)Nc1ccccc1C(=O)Nc1cccc(S(=O)(=O)C(F)(F)F)c1 | 98% | 0.052 | EC50 (HEK293): 9.4 µM; solubility kinetic [2]: 17 µM (≈ 8.61 µg/mL); t1/2 [3]: 26.8 min
31 | O=C(Nc1cccc(Br)c1)c1ccccc1NC(=O)C1CCCCC1 | 91% | 2.65 | 
32 | Cc1ccccc1NC(=O)c1ccccc1NC(=O)C1CCCCC1 | inactive |  | EC50 (Relaxin receptor 1; hek293): Not Active
33 | COc1cccc(NC(=O)c2ccccc2NC(=O)C2CCCCC2)c1 | 74% | 37.4 | 
34 | CC(C)Oc1ccccc1C(=O)Nc1ccccc1C(=O)Nc1cccc(C(F)(F)F)c1 | 99% | 0.471 | 
35 | O=C(Nc1ccccc1C(=O)Nc1ccccc1C(=O)NCc1ccco1)c1ccco1 |  |  | Kinetic_solubility ([2]; buffer): 3.7 µM; remaining at 1 h [4]: 2%
36 | O=C(Nc1cccc(F)c1)c1ccccc1NC(=O)C1CCCCC1 | 81% | 13.3 | 
37 | O=C(Nc1cccc(C(F)(F)F)c1)c1ccccc1NC(=O)C1CCCC1 | 88% | 2.36 | 
38 | O=C(Nc1cccc(SC(F)(F)F)c1)c1ccccc1NC(=O)C1CCCCC1 | 90% | 1.88 | 
39 | O=C(Nc1cccc(Cl)c1)c1ccccc1NC(=O)C1CCCCC1 | 89% | 3.34 | 
40 | O=C(Nc1cccc(-c2cccc(C(F)(F)F)c2)c1)c1ccccc1NC(=O)C1CCCCC1 | inactive |  | EC50 (Relaxin receptor 1; hek293): Not Active
41 | CSc1cccc(NC(=O)c2ccccc2NC(=O)C2CCCCC2)c1 | 84% | 5.29 | 
42 | CCOc1ccccc1C(=O)Nc1cnccc1C(=O)Nc1cccc(S(=O)(=O)C(F)(F)F)c1 | 99% | 2.97 | solubility kinetic [2]: < 1000 µM
43 | Cc1ccc(NC(=O)c2ccccc2NC(=O)C2CCCCC2)cc1 | 32% | 187 | 
44 | COc1ccc(C(=O)Nc2ccccc2C(=O)Nc2cccc(C(F)(F)F)c2)cc1 | 71% | 9.4 | 
45 | O=C(Nc1cccc(C(F)(F)F)c1)c1ccccc1NC(=O)C1CC1 | 79% | 8.38 | 
46 | COc1ccccc1C(=O)Nc1ccccc1C(=O)Nc1cccc(S(=O)(=O)C(F)(F)F)c1 | 99% | 0.188 | t1/2 [3]: > 30 min
47 | CC(C)(C)c1cccc(NC(=O)c2ccccc2NC(=O)C2CCCCC2)c1 | 70% | 2.66 | 
48 | O=C(Nc1ccccc1C(=O)Nc1cccc(C(F)(F)F)c1)c1cccnc1 | 95% | 5.93 | 
49 | COc1cccc(C(=O)Nc2ccccc2C(=O)Nc2cccc(C(F)(F)F)c2)c1 | 94% | 1.88 | 
50 | O=C(Nc1ccc(C(F)(F)F)cc1)c1ccccc1NC(=O)C1CCCCC1 | 46% | 94 | 
51 | CCCCOc1ccccc1C(=O)Nc1ccccc1C(=O)Nc1cccc(S(=O)(=O)C(F)(F)F)c1 | 98% | 0.047 | solubility kinetic [2]: 5.3 µM (≈ 2.76 µg/mL); t1/2 [3]: 19.5 min
52 | Cc1ccccc1C(=O)Nc1ccccc1C(=O)Nc1cccc(C(F)(F)F)c1 | 90% | 4.2 | 
53 | COCCOc1ccccc1C(=O)Nc1ccccc1C(=O)Nc1cccc(C(F)(F)F)c1 | 98% | 0.747 | 
54 | COc1ccccc1C(=O)N(C)c1ccccc1C(=O)Nc1cccc(C(F)(F)F)c1 | inactive |  | EC50 (Relaxin receptor 1; hek293): Not Active
55 | CCOc1ccccc1C(=O)Nc1ccccc1C(=O)Nc1cccc(S(=O)(=O)C(F)(F)F)c1 |  |  | t1/2 [3]: > 30 min
